The values that follow come from PMC4767442 (Oncotarget, 2015).

For data set [1], the system named is H9c2 rat heart-derived myoblast cell line. Put plainly: MTT proliferation/viability assay, H9c2. As to conditions: 72 h/37°C, mean ± S.D., serum- and pyruvate-free DMEM. It is filed as cell-based. Here is the method:
(§1) The MCF-7 human breast adenocarcinoma cell line was purchased from the European Collection of Cell Cultures (U.K.). The HL-60 human promyelocytic leukemia cell line, HCT116 human colorectal carcinoma cell line, H9c2 rat heart-derived myoblast cell line and 3T3 mouse embryo fibroblast line, were obtained from the American Type Culture Collection (VA, U.S.A.). Cells were cultured in Dulbecco's modified Eagle's medium (DMEM, Lonza, Switzerland) with or without (for MCF-7 cells only) phenol red, supplemented with 10% heat-inactivated fetal bovine serum (FBS; Lonza, Switzerland), 1% penicillin/streptomycin solution (Lonza, Switzerland) and 10 mM HEPES buffer (pH 7.0-7.6; Sigma-Aldrich, Germany). The HL-60 cell line was maintained in RPMI medium (Sigma-Aldrich, Germany) supplemented with 10% heat-inactivated FBS and 1% penicillin/streptomycin solution. All cell lines were cultured in 75 cm^2 tissue culture flasks (Switzerland) at 37°C in a humidified atmosphere of 5% CO2. Sub-confluent cells or, in the case of HL-60 cells, a cell suspension, were sub-cultured every 3-4 days.
(§2) Cells were seeded in 96-well plates for 24 h/37°C at a density of 5,000 (MCF-7), 10,000 (HL-60), 2,000 (HCT116) and 10,000 (3T3 and H9c2) cells/well. For 3T3 and H9c2 cells, the medium was changed to serum- and pyruvate-free DMEM 24 h prior to the experiments. Anti-proliferative and cytotoxicity effects of the compounds were studied at different concentrations after incubations for 72 h/37°C. Viabilities of cells were determined using MTT assays (Sigma-Aldrich, Germany) according to the manufacturer's instructions on a Tecan Infinite 200M plate reader (Tecan, Austria). The proliferation/viability of treated groups was expressed as a percentage of the untreated controls (100%).

Data set [2] has as its system MCF-7 human breast adenocarcinoma cell line. Put plainly: MTT proliferation/viability assay, MCF-7. It is filed as cell-based. The conditions noted are these: MCF7, 72 h/37°C, mean ± S.D. Here is the method:
as §1, §2

Data set [3] concerns HL-60 human promyelocytic leukemia cell line. Put plainly: MTT proliferation/viability assay, HL-60. It is filed as cell-based. As to conditions: 72 h/37°C, mean ± S.D. Here is the method:
as §1, §2

Data set [4] deals with MCF-7 cells. Put plainly: Inhibition of internalized 59Fe uptake from 59Fe-transferrin. It is filed as cell-based, human. As to conditions: MCF-7, compounds 25 μmol·L^−1, 3 h/37°C. Here is the method:
(§3) Iron chelation efficiency of the compounds at a concentration of 10 μmol·L^−1 was determined via 3 methods: (1) the calcein assay; (2) the ability of the ligands to induce ^59Fe mobilization from cells prelabeled with ^59Fe-transferrin; and (3) the efficacy of these agents to inhibit the uptake of ^59Fe from ^59Fe-transferrin [22, 38–40].
(§4) The fluorimetric calcein-AM assay was performed by established methods, as described previously. The Fe chelation efficiency of the metabolites in cells was expressed as a percentage of that of the parent chelator, Dp44mT or DpC (100%). For studies assessing the ability of these agents to induce ^59Fe mobilization and inhibit ^59Fe uptake from ^59Fe-transferrin by cells, human transferrin (Sigma-Aldrich, Germany) was labeled with ^59Fe (PerkinElmer, MA, USA) to generate ^59Fe-transferrin at a final specific activity of 500 pCi/pmol Fe, as previously described. The unbound ^59Fe was removed by exhaustive vacuum dialysis against a large excess of 0.15 M NaCl buffered to pH 7.4 with 1.4% NaHCO3 by standard methods.
(§5) To examine the ability of the studied substances to mobilize ^59Fe from MCF-7 cells or inhibit ^59Fe uptake from ^59Fe-transferrin, established techniques were utilized. For ^59Fe mobilization studies, cells were preincubated with ^59Fe-transferrin (0.75 μmol·L^−1) for 3 h/37°C, washed 4 times at 4°C on ice, and then reincubated with control medium or control medium containing the compounds (25 μmol·L^−1) for 3 h/37°C. The release of ^59Fe from the cells into the overlying medium was then examined by collecting both the cells and overlying medium and assessing ^59Fe levels using a γ-counter. For studies examining the ability of the agents to inhibit ^59Fe uptake from ^59Fe-transferrin, cells were incubated for 3 h/37°C with ^59Fe-transferrin (0.75 μmol·L^−1) in the presence or absence of the agents (25 μmol·L^−1), and then washed 4 times at 4°C on ice. The internalization of ^59Fe by cells was then assessed by incubation for 30 min/4°C with the general protease, Pronase (1 mg/mL), utilizing standard techniques. The amount of internalized ^59Fe in the presence of the agents was expressed as a percentage of ^59Fe internalized by control cells incubated in the presence of control media alone.

Data set [5] deals with MCF-7 cells. Put plainly: 59Fe mobilization from cells prelabeled with 59Fe-transferrin. It is filed as cell-based, human. As to conditions: MCF-7 prelabeled with 59Fe-transferrin, compounds 25 μmol·L^−1, 3 h/37°C. Here is the method:
as §3, §4, §5

In data set [6] the test system is HCT116 human colorectal carcinoma cell line. Put plainly: MTT proliferation/viability assay, HCT116. It is filed as cell-based. The conditions noted are these: HCT-116, 72 h/37°C, mean ± S.D. Here is the method: as §1, §2
Data set [7] deals with 3T3 mouse embryo fibroblast line. Put plainly: MTT proliferation/viability assay, 3T3. The conditions noted are these: 72 h/37°C, mean ± S.D., serum- and pyruvate-free DMEM. It is filed as cell-based. Here is the method:
as §1, §2

In data set [8] the test system is cellular labile iron pools. Put plainly: Fluorimetric calcein-AM assay of intracellular iron chelation. It is filed as cell-based. As to conditions: 10 μmol·L^−1. Here is the method:
as §3, §4

Data set [9] is described as follows: Post-preparative stability in the autosampler at 10°C. It is filed as physicochemical. As to conditions: for Post-preparative stability: autosampler 10°C, 24 h. Here is the method:
(§6) The UHPLC-MS/MS methods for quantitative assays were validated with respect to selectivity, linearity, precision, accuracy, stability, recovery, matrix effects and dilution integrity (see […]
Supplementary Table 1-3). […]
(§7) Stability was assessed at low, medium and high concentration levels. Long -term stability was assessed for plasma samples at -80°C over a period of 7 days (three aliquots per level; Supplementary Table 3). […]

A short description of data set [10]: Pharmacokinetics after single i.v. administration to rats (plasma, UHPLC-MS/MS). It is filed as in vivo, Wistar rats. Here is the method:
Male Wistar rats (230-310 g; n = 22) obtained from Velaz (Czech Republic) were kept in an air-conditioned room under a 12 h light-dark cycle, constant temperature and humidity and had free access to water and a standard laboratory pellet diet for rodents. All animal handling and procedures were approved and supervised by the Animal Welfare Body of the Faculty of Medicine in Hradec Kralove, Charles University in Prague. The investigation conformed to the Guide for the Care and Use of Laboratory Animals.
The rats were anaesthetized with pentobarbital (30 mg^.kg^−1; i.p.) and then the vena jugularis and arteria carotis were prepared for drug administration and blood sample collection, respectively. Both Dp44mT and DpC were dissolved in a mixture of saline, PEG 300 and ethanol (5:4:1, v/v/v) and administered to rats at a dose of 2 mg^.kg^−1, as a slow i.v. bolus. Blood was then collected into EDTA-containing tubes, immediately centrifuged and the plasma kept at −80°C until being analyzed. The blood withdrawn from animals was compensated with an appropriate volume of saline. The animals were sacrificed by pentobarbital overdose.
Initially, for both compounds, rats (n = 2, in each group) were used for the in-vivo investigation of the thiosemicarbazone metabolites and also the preparation of the quantitative analytical method. For the full PK study, 6 rats were used for each compound (group 1) and the blood was sampled at 4, 10, 30, 60, 120, 240 and 360 min post-administration.
Due to the markedly slower elimination of DpC, an additional in-vivo study was performed to appropriately describe the elimination phase of this drug. The conscious rats (n = 8, group 2) were administered DpC (2 mg^.kg^−1) via slow i.v. bolus to the vena saphena. Blood was sampled from the retro-orbital plexus under light ether anesthesia during the following time intervals: 120, 360, 600, 1440 and 1800 min. Plasma samples were treated and analyzed using the analytical methods described below in the Section: UHPLC-MS/MS methods for quantitative assay of the drugs and their metabolites.
Standard non-compartmental analysis was performed implementing Kinetica software (version 4.0, Thermo Fisher Scientific Inc., MA, U.S.A.). […] Maximum concentration (Cmax) and the time to maximum concentration (Tmax) were determined directly from the geometric mean vs. time profiles and from individual profiles. The area under the mean plasma concentration–time curve from zero up to the last sampling interval (AUC0-tlast) was calculated by a combination of the linear and log-linear trapezoidal methods. The area under the mean plasma concentration–time curve from zero up to infinity (AUC) was determined as the sum of the AUC0–tlast and of the extrapolated part (i.e., the ratio of the concentration predicted at the time interval of tlast and the terminal rate constant, λz). The λz was estimated by linear regression of the log transformed concentrations in the terminal part of the curve.
Population pharmacokinetic modeling was performed using non-linear, mixed effect modeling as implemented in Monolix, version 4 (http://wfn.software.monolix.org). Pharmacokinetic parameters were estimated by computing the maximum likelihood estimator of the parameters without any approximation of the model (no linearization). This was performed using the Stochastic Approximation Expectation Maximization (SAEM) algorithm combined with a Markov chain Monte Carlo procedure. The between-animal variability in model parameters were ascribed to an exponential model and a proportional model was used to describe the residual variability. The goodness-of-fit was assessed by using several diagnostic plots (observed and predicted concentrations vs. time; observed concentrations vs. population predictions; weighted residuals vs. time; and weighted residuals vs. predictions). Individual parameter values were obtained as empirical Bayes estimates. […]

Data set [11] can be described thus: Long-term stability in plasma samples at -80°C. It is filed as in vitro ADME, rat. As to conditions: for Long-term stability: plasma, -80°C, 7 days. Here is the method: as §6
Linearity was examined over the concentration ranges described in Supplementary Table 1 using a weighted (1/x 2) linear regression in GraphPad Prism 6 (v. 6.04, GraphPad Software […]
as §7

[12] abbreviates: high concentration level (2.105-3.115 µmol·L-1).
Setting [13] is: low concentration level (0.035-0.156 µmol·L-1).
[14] abbreviates: medium concentration level (0.702-1.558 µmol·L-1).

Molecules are shown by their SMILES.

A word on the IC50: it is the concentration that inhibits the measured activity by half. Read a low IC50 as inhibition by little substance. Broadly, the Cmax is the peak of the concentration-time curve. In general, Tmax refers to the time at which the peak concentration occurs.

Regarding `O=C(c1ccccn1)c1ccccn1` [DpK, di(2-pyridyl)ketone], the half-maximal inhibitory concentration (IC50) in data set [1], in [2], in data set [3], in data set [6] and in data set [7] was greater than 1000 µM each time. For the same molecule, the “inhibition of 59Fe uptake from 59Fe-transferrin (in words)” value in data set [4] is listed as “did not have any significant (p>0.05) effect”. For the same molecule, the “59Fe mobilization (in words)” value in data set [5] is recorded as “no greater than the control”. Further, the “intracellular Fe chelation efficacy (in words)” value in data set [8] was “lower ability to bind intracellular Fe than their parent ligands”.
For `CNC(=S)NN=C(c1ccccn1)c1ccccn1` [Dp4mT, di(2-pyridyl)ketone 4-methyl-3-thiosemicarbazone], the “decomposition on storage (in words)” value in [9] (24 h storage in the autosampler at 10°C) and in [11] (up to 7 days stored at −80°C) was “No significant decomposition” each time. Besides, the values for the Post-preparative stability in data set [9] (setting [12]), in data set [9] (setting [13]) and in data set [9] (setting [14]) were 95.44%, 100.24% and 111.72%, respectively. The Cmax in data set [10] (male, Wistar, rat, plasma, iv, 2 mg/kg, rats, i.v. 2 mg·kg^−1, non-compartmental analysis of geometric mean plasma curves, Dp4mT = metabolite after Dp44mT dosing, read-out: Cmax) came out at 496 nM. Moreover, in data set [10] (male, Wistar, rat, plasma, iv, 2 mg/kg, rats, i.v. 2 mg·kg^−1, non-compartmental analysis, Dp4mT = metabolite after Dp44mT dosing, read-out: Tmax (converted)), the Tmax is 0.167 h. Also, in data set [10] (male, Wistar, rat, plasma, iv, 2 mg/kg, rats, i.v. 2 mg·kg^−1, non-compartmental analysis, read-out: AUC (zero to infinity)), the AUC(0-inf) was 0.748 µM·h. In addition, the half-life in [10] (male, Wistar, rat, plasma, iv, 2 mg/kg, rats, i.v. 2 mg·kg^−1, non-compartmental analysis, read-out: t1/2 (elimination half-life) (converted)) is 2 h. Besides, the AUC(0-t) in [10] (male, Wistar, rat, plasma, iv, 2 mg/kg, read-out: AUC0-tlast) is 0.671 µM·h. For the same molecule, in data set [10] (rats, i.v. 2 mg·kg^−1, non-compartmental analysis), the “lamdaz (terminal rate constant of elimination)” value was found to be 0.346 h⁻¹. Moreover, the values for the Long-term stability in [11] (setting [12]), in [11] (setting [13]) and in data set [11] (setting [14]) were 90.82%, 94.78% and 90.83%, respectively.
Turning to `CN(C(=O)NN=C(c1ccccn1)c1ccccn1)C1CCCCC1` [DpC-S, di(2-pyridyl)ketone 4-cyclohexyl-4-methylsemicarbazone], the 50% inhibitory concentration (IC50) in [1] is 5.59 ± 0.82 µM; in data set [2], 3 ± 0.81 µM; in data set [3] it was 2.57 ± 0.33 µM; in [6], 3.03 ± 0.91 µM; in [7], 12.8 ± 2.87 µM. The “inhibition of 59Fe uptake from 59Fe-transferrin (in words)” value in data set [4] was “marked and similar to DpC”. Besides, in [5], the “59Fe mobilization (in words)” value is “comparable to DpC”. For the same molecule, the “intracellular Fe chelation efficacy (in words)” value in data set [8] is recorded as “lower ability to bind intracellular Fe than their parent ligands”.
`CN(C)C(=O)NN=C(c1ccccn1)c1ccccn1` [Dp44mS, di(2-pyridyl)ketone 4,4-dimethylsemicarbazone]: the IC50 in data set [1] was determined as 367 ± 63.4 µM; in [2], 29.4 ± 8.63 µM; in [3], 27.3 ± 3.56 µM; in [6], 9.31 ± 1.58 µM; in data set [7] it was 139 ± 28.9 µM. For the same molecule, in [4], the “internalized 59Fe uptake from 59Fe-transferrin, % of the control” value is 64%. Also, the “59Fe mobilization (in words)” value in [5] is “approximately half as effective as Dp44mT”. Moreover, the “intracellular Fe chelation efficacy (in words)” value in data set [8] is “lower ability to bind intracellular Fe than their parent ligands”.
